Measurements as given in US6432939B1, “17a-hydroxy-4-androstene-3-one and derivatives thereof” (priority 1999, dated 2002).

Legend:
[1] = system: Sertoli cells; test: inhibin-B secretion by Sertoli cells (inhibin-B dimer assay, Serotec); assay type: cell-based, Wistar rats
Procedure: The in-vitro stimulating effect on inhibin-B generation was measured using inhibin-B dimer assays by Serotec, Oxford, UK. […] The difference between the released inhibin-B quantity with and without the test substance expresses the efficacy of the respective test substance.
The substances were tested for their stimulating effect on inhibin-B secretion in an in-vitro model using Sertoli cells originating from Wistar rats and cultivated for up to 4 days.
Wistar rats that were 18 days old were killed using CO2; their testicles were collected and mechanically chopped up using a surgical knife. The resulting cell pulp was enzymatically disintegrated with collagenase II, hyaluronidase, and DNase using the following method: The cell pulp was digested for 15 minutes at 37° C. in 20 ml of Dulbecco's Modified Essential Medium (DMEM) containing 20 mg of collagenase II; subsequently, it was sedimented for 7 minutes at room temperature. The supernatant was discarded. The remaining pellet was resuspended in DMEM, then sedimented again for 7 minutes. The next steps were a second decomposition for 30 minutes at 37° C. in 20 ml of DMEM containing 40 mg of collagenase II, 40 mg of hyaluronidase, and 0.1 mg of DNase, and a centrifugation step at 500 rpm. After washing in DMEM without additives and another centrifugation step, the pellet was a third time enzymatically disintegrated for 30 minutes at 37° C. in 20 ml of DMEM containing 40 mg of collagenase II, 40 mg of hyaluronidase and 0.1 mg of DNase, then centrifuged at 1,000 rpm. The pellet was then resuspended, washed once in DMEM without additives, and finally sublimated with 100 U/ml of penicillin, 100 μg/ml of streptomycin, 5 μg/ml of human transferrin, 2 μg/ml of insulin, 50 ng/ml of vitamin A (all from Sigma Co.), 200 ng/ml of vitamin E (Merck Co.), and 3 mg/ml of cytosine arabinoside (Sigma Co.) (DMEM-Z) and sowed in 24-well microtiter plates. After 48 hours, the cultivated cells were given hypotonic treatment using 20 mM of Tris-HCl (pH 7.4) to remove residual gametes, then the medium was changed into DMEM-Z.
1 ml of biological sample containing 10^6 Sertoli cells in 990 ml of DMEM-Z and test substances at a concentration range from 0.1 nM to 1 μM, each dissolved in 10 μl of absolute ethanol (1% w/v of the total batch) was incubated for 48 hours at 34° C. and 5% CO2. The culture supernatant was then decanted from the cells, frozen at −20° C. and kept until the inhibin-B level was determined.
0.1 ml of culture supernatant was mixed with 0.05 ml of SDS of the inhibin-B assay (Serotec, Oxford, UK) in 1.8 ml Eppendorf reaction vessels and heated for 3 minutes to 100° C. After the batch had cooled down, 0.1 ml of assay diluent and 0.05 ml of a 6% H2O2 solution were added, intermixed, then incubated for 30 minutes at room temperature.
80 ml of the above reaction mixture and 80 ml of the 7 inhibin-B standards for creating a calibration curve contained in the assay were pipetted into the wells of the microtiter plate contained in the assay and allowed to incubate at room temperature overnight. Finally the wells were washed 3 times with an inhibin washing buffer.
The content of the alkaline phosphatase-conjugated antibody against human inhibin-B contained in the assay was taken up in 6 ml of assay diluent, and 0.05 ml of this solution were pipetted into the wells and incubated for 3 hours at room temperature. […]

[2] = system: epididymal and prostatic 5α-reductase; details: Monsalve 1977; Starka 1989; cited from earlier work
[3] = system: FSH levels in the plasma; details: depending on its dose; Bicikova 1993; cited from earlier work

Compound | inhibin-B secretion after adding steroids from natural sources ([1]; Sertoli cell culture) | inhibin-B levels expressed from the culture supernatant as compared to the control tests ([1]; Sertoli cell culture, incubation time of 44 and 52 hours, FIG. 2 (EpiT 1 uM)) | increase of inhibin-B levels: concentration range of particularly striking effect ([1]; epitestosterone concentrations in the range from 10 nM to 1 pM) | inhibition of epididymal and prostatic 5α-reductase [2] | effect on FSH levels in the plasma [3]
C[C@]12CCC(=O)C[C@@H]1CC[C@@H]1[C@@H]2CC[C@]2(C)[C@@H](O)CC[C@@H]12 [dihydrotestosterone] | not influenced |  |  |  | 
C[C@]12CC[C@H]3[C@@H](CCC4=CC(=O)CC[C@@]43C)[C@@H]1CC[C@@H]2O [testosterone] | not influenced |  |  |  | 
CC(=O)[C@H]1CC[C@H]2[C@@H]3CCC4=CC(=O)CC[C@]4(C)[C@H]3CC[C@]12C [progesterone] | not influenced |  |  |  | 
C[C@]12CC[C@H]3[C@@H](CCC4=CC(=O)CC[C@@]43C)[C@@H]1CC[C@H]2O [17α-hydroxy-4-androstene-3-one] |  | significantly increased | particularly striking | inhibits | either an inhibiting or an increasing effect
